Laboratory results as given in patent US12329722B2, “Finished pharmaceutical form with individual medicine dosing capability (embodiments) and methods of its production and use” (PSIMOS, INC., priority 2016, dated 2025).
Each block holds one molecule with its values, some of them ahead of it.

How the values were obtained:
Type in all cases: physicochemical
[1] = solubility in water/alcohol solutions; settings: water/alcohol solutions of the abovementioned concentrations
[2] = desorption of applied medicine from porous media to potable water; settings: 50 ml of potable water
[3] = quantity of medicine that can be applied on unit area of porous media with a jet printer; settings: fiberglass membrane made by Algstrem
Experimental: Using a jet printer with rechargeable cartridges the solution was applied on a 236.5 cm^2 specimen of media made from cellulose filtering material (size 21.5*1 1 cm^2, format Letter) with different printing qualities in dpi and different area filling densities. […] Following that the quantity of acetylsalicylic acid applied per unit area was analyzed depending on software controlled printing quality (in dpi). Using the specially plotted graduation curve the required printing densities in dpi were selected for applying 130 mg per 0.25 cm^2, or 520 mg/cm^2. The specimen was dried in a hot air flow for guaranteed removal of the water/alcohol solvent and packaged in a polymer container protecting the specimen from direct sunlight. Then the specimen was removed from the container and placed in a glass with water.
A similar procedure was conducted for d, 1-2-(4-isobutylphenyl)-propionic acid (the active pharmaceutical substance of the Ibuprofen medicine) and a fiberglass membrane made by Algstrem, USA, used in immunology.

[4] = stability of medicine during application with a piezoelectric apparatus (chromatography); settings: heat from piezoelectric apparatus above 40 degrees Celsius
From the text: Initially, at S110, a head 216 of a printing device 208 is dismantled. The head 216 of the printing device 208 may include a plurality of head nozzles 218 operative to dispense a liquid therefrom. The printing device 208 may be a piezoelectric apparatus, or any other suitable apparatus. The printing device 208 may accurately (e.g., within 5% of a nominal range) output a range of drop sizes (e.g., 2-80 picolitres) at a relatively high dispensing frequency (e.g., 1000-3000 drops per second). The printing device 208 may operate based on an inverse piezoelectric effect, whereby a piezoelectric element is deformed under the influence of an electric field. […] In one or more embodiments, the printing device 208 may include a thermo sensor 230 to control the temperature of the head 216 to avoid heating the medicine to a temperature that results in decomposition of the medicine. […] It is noted that the ranges of acceptable temperatures may be analyzed, as cooling may affect viscosity of the medicine. […] The inventors note that, per their research on the use of vitamin C in a piezoelectric apparatus, during application of the medicine to the porous media, heat resulting from the use of the piezoelectric apparatus occurred above 40 degrees Celsius, as vitamin C was destroyed and its presence was not detected during chromatography. […]

solubility in water/alcohol solutions [1]: ~100%
SMILES: CC(=O)Oc1ccccc1C(=O)O [acetylsalicylic acid]

quantity desorbed to potable water ([2]; 1 cm^2 fiberglass membrane (Algstrem), 300±2 mg applied): 246±2
share of applied quantity desorbed to potable water ([2]; 1 cm^2 fiberglass membrane): 82%
possible quantity that can be applied on 1 cm^2 (unit area) [3]: 300 ± 2 mg
SMILES: CC(C)Cc1ccc(C(C)C(=O)O)cc1 (centres unmarked) [d, 1-2-(4-isobutylphenyl)-propionic acid]

stability during application to porous media with piezoelectric apparatus [4]: destroyed
SMILES: O=C1O[C@H]([C@@H](O)CO)C(O)=C1O [vitamin C]
